# Patent US8975400B2, “2,3-dihydroimidazo[1, 2-c] pyrimidin-5(1 H)-one compounds use as LP-PLA2 inhibitors” (Glaxo Group Limited, priority 2011, dated 2015)
# Where a name gives a salt, the structure may show the parent alone.
# Key:
# [1] = molecular target: T1, recombinant human Lp-PLA2 (Homo sapiens, UniProt Q13093); test: Recombinant human Lp-PLA2 assay (rhLp-PLA2, PED6 assay); type: biochemical; conditions: recombinant human Lp-PLA2, PED6 substrate; upper limit for pIC50 in this assay is 9.3
# T1 sequence (Q13093 22-441): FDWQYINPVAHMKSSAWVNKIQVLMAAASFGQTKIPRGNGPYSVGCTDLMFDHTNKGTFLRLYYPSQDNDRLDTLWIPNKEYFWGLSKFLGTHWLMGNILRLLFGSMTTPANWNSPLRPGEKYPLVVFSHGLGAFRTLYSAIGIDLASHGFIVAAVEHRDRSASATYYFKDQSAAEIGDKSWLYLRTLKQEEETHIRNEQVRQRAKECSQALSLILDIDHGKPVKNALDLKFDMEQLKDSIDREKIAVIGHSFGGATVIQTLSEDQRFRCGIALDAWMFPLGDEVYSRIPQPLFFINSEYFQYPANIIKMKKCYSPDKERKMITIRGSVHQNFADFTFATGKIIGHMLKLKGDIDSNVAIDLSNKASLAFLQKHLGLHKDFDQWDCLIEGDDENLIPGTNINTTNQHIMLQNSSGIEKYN
# Source text: (1) Recombinant Human Lp-PLA2 Assay (rhLp-PLA2) (Also Referred to as “PED6” Assay)
# N-((6-(2,4-dinitrophenyl)amino)-hexanoyl)-2-(4,4-difluoro-5,7-dimethyl-4-bora-3a,4a-diaza-s-indacene-3-pentanoyl)-1-hexadecanoyl-sn-glycero-3-phosphoethanolamine, triethylammonium salt (PED6) is a commercially available fluorescently-labeled phospholipid, which is commercially available from Invitrogene and Molecular Probes. There is a quenching […] and a Bodipy fluorescein (FL) group in the sn2 position. Upon cleavage with Lp-PLA2, the Bodipy FL group is liberated and then may result in an increase in fluorescence. Inhibitors of Lp-PLA2 therefore prevent this cleavage and no fluorescent increase is observed.
# The PED6 assay was run as an unquenched 10 μL assay. The source plate containing the compounds to be tested was prepared by making 1:3 (by volume) serial dilution of the compounds within DMSO on 384-well microplate. Then, 0.01 μL of the compounds on compound source plate were transferred into 384 well Greiner 784076 (black) plates using ECHO liquid dispenser. 5 µL of recombinant human Lp-PLA2 enzyme (4 nM (or 110 pM) rhLp-PLA2 in assay buffer of 50 mM HEPES, pH 7.4, 150 mM NaCl, 1 mM CHAPS) was added to each well of the plate. Plates were centrifuged for 10 sec at 500 rpm. After 30 minutes preincubation, 5 µL of substrate (4 μM (or 5 μM) PED6 [from 5 mM DMSO stock] in assay buffer of 50 mM HEPES, pH 7.4, 150 mM NaCl, 1 mM CHAPS) was added to 384 well Greiner 784076 (black) plates. Plates were centrifuged for 10 sec at 500 rpm. The plate was covered to protect it from light and incubated for 20 min at room temperature. The plates were read for fluorescence intensity at ex: 480/em: 540 using ViewLux microplate imager for Envision spectrofluroimeters pIC50 data, curve and QC analysis was conducted by using XL fit module in Excel.
# The compounds described below were tested generally according to the PED6 assay described above.
# Lp-PLA2 in human plasma = molecular target: T2, Lp-PLA2 in human plasma (Homo sapiens, UniProt Q13093); test: Lp-PLA2 human plasma assay (Thio-PAF assay); type: biochemical; conditions: pooled human plasma, 2-thio-PAF substrate; read-out: pIC50 in the thio-PAF assay (converted)
# T2 construct: This assay may detect the activity of Lp-PLA2 in human plasma; from tissue; host or cells: pooled human plasma
# T2 sequence (Q13093 22-441): T1 sequence (Q13093 22-441)
# Source text: (3) Lipoprotein-Associated Phospholipase A2 (Lp-PLA2) Human Plasma Assay (Also Referred to as “Thio-PAF Assay”)
# The human plasma assay utilizes a thioester analog of PAF (phosphatidylcholine), where hydrolysis yields to the formation of a phospholipid containing a free thiol group. The amount of thiol is quantitated continuously by reacting with CPM (7-diethylamino-3-(4′-maleimidylphenyl)-4-methylcoumarin), a maleimide which increases in fluoresence after Michael addition of thiols. This assay may detect the activity of Lp-PLA2 in human plasma, as determined by specific inhibition by Lp-PLA2 inhibitors.
# The thio-PAF assay was run as a quenched 15 μL assay. Compounds source plate was prepared by making 1:3 (by volume) serial dilution of the compounds into pure DMSO on 384-well microplate. 0.01 μL of compounds on compound source plate were transferred to 384 well Greiner 784076 (black) low-volume plates by ECHO liquid dispenser. 8 μL pooled human plasma, which was previously aliquoted and frozen, was added. Plates were centrifuged for 10 sec at 500 rpm. After 30 minutes preincubation, 2 μL of substrate solution comprising 2.5 mM 2-thio-PAF [from ethanol stock], 32 μM CPM [from a DMSO stock] and 3.2 mM NEM (N-ethylmaleimide) [made fresh daily in DMSO] in assay buffer of 50 mM HEPES, pH 7.4, 150 mM NaCl, 1 mM CHAPS was added to 384 well Greiner 784076 (black) low-volume plates by BRAVO liquid handling station. After 2 mins, reaction was quenched with 5 μL of 5% aqueous trifluoroacetic acid (TFA). Plates were covered to protect from light and incubated for 40 min at room temperature. Plates were read at ex: 380/em: 485 using-Envision microplate reader. pIC50 data, curve and QC analysis was conducted by using XLFit module in Excel.
Structure (SMILES),IC50 [1],IC50 (Lp-PLA2 in human plasma)
"CN1CCn2c1cc(OCc1ccc(Oc3ccnc(C(F)(F)F)c3)c(F)c1)nc2=O [Example 94, 7-((3-fluoro-4-((2-(trifluoromethyl)pyridin-4-yl)oxy)benzyl)oxy)-1-methyl-2,3-dihydroimidazo[1,2-c]pyrimidin-5(1H)-one]",1.58 nM,≤ 100 nM
"CN1CCn2c1cc(OCc1ccc(Oc3ccnc(Cl)c3)c(F)c1)nc2=O [Example 109, 7-((4-((2-chloropyridin-4-yl)oxy)-3-fluorobenzyl)oxy)-1-methyl-2,3-dihydroimidaz-o[1,2-c]pyrimidin-5(1H)-one]",≤ 10 nM,≤ 1000 nM
"N#Cc1cc(COc2cc3n(c(=O)n2)CCN3)ccc1Oc1cncc(C(F)(F)F)c1 [Example 124, 5-(((5-oxo-1,2,3,5-tetrahydroimidazo[1,2-c]pyrimidin-7-yl)oxy)methyl)-2-((5-(trifluoromethyl)pyridin-3-yl)oxy)benzonitrile, trifluoroacetic acid salt]",≤ 10 nM,≤ 100 nM
"CN1CCn2c1cc(OCc1cc(F)c(Oc3cccc(C#N)c3)c(F)c1)nc2=O [Example 104, 3-(2,6-difluoro-4-(((1-methyl-5-oxo-1,2,3,5-tetrahydroimidazo[1,2-c]pyrimidin-7-yl)oxy)methyl)phenoxy)benzonitrile]",≤ 10 nM,≤ 1000 nM
"N#Cc1ccc(Oc2ccc(COc3cc4n(c(=O)n3)CCN4)cc2F)cc1C(F)(F)F [Example 118, 4-(2-fluoro-4-(((5-oxo-1,2,3,5-tetrahydroimidazo[1,2-c]pyrimidin-7-yl)oxy)methyl)p-hen-oxy)-2-(trifluoromethyl)benzonitrile]",0.794 nM,≤ 100 nM
"CN1CCn2c1cc(OCc1ccc(Oc3cc(F)cc(F)c3)c(C#N)c1)nc2=O [Example 111, 2-(3,5-difluorophenoxy)-5-(((1-methyl-5-oxo-1,2,3,5-tetrahydroimidazo[1,2-c]pyri-midin-7-yl)oxy)methyl)benzonitrile]",≤ 10 nM,≤ 1000 nM
"CN1CCn2c1cc(OCc1ccc(Oc3cc(C#N)cc(C(F)(F)F)c3)c(F)c1)nc2=O [Example 150, 3-(2-fluoro-4-(((1-methyl-5-oxo-1,2,3,5-tetrahydroimidazo[1,2-c]pyrimidin-7-yl)oxy)methyl)phenoxy)-5-(trifluoromethyl)benzonitrile, trifluoroacetic acid salt]",≤ 10 nM,≤ 100 nM
"N#Cc1cc(COc2cc3n(c(=O)n2)CCN3)ccc1Oc1ccnc(C(F)(F)F)c1 [Example 91, 5-(((5-oxo-1,2,3,5-tetrahydroimidazo[1,2-c]pyrimidin-7-yl)oxy)methyl)-2-((2-(trifluoromethyl)pyridin-4-yl)oxy)benzonitrile]",≤ 10 nM,≤ 100 nM
CN1CCn2c1cc(OCc1ccc(Oc3cc(F)cc(C(F)(F)F)c3)c(C#N)c1)nc2=O [Example 116],≤ 1 nM,≤ 100 nM
"Cc1cc(Oc2ccc(COc3cc4n(c(=O)n3)CCN4C)cc2F)ccc1C#N [Example 149, 4-(2-fluoro-4-(((1-methyl-5-oxo-1,2,3,5-tetrahydroimidazo[1,2-c]pyrimidin-7-yl)oxy)methyl)phenoxy)-2-methylbenzonitrile]",≤ 10 nM,≤ 1000 nM

# Next, values leading:
IC50 [1],IC50 (Lp-PLA2 in human plasma),Structure (SMILES)
≤ 10 nM,≤ 100 nM,"N#Cc1ccc(Oc2ccc(COc3cc4n(c(=O)n3)CCN4)cc2C#N)cc1F [Example E64, 4-(2-cyano-4-(((5-oxo-1,2,3,5-tetrahydroimidazo[1,2-c]pyrimidin-7-yl)oxy)methyl)p-henoxy)-2-fluorobenzonitrile]"
1.26 nM,≤ 100 nM,"CN1CCn2c1cc(OCc1ccc(Oc3ccnc(C(F)(F)F)c3)c(C#N)c1)nc2=O [Example E80, 5-(((1-methyl-5-oxo-1,2,3,5-tetrahydroimidazo[1,2-c]pyrimidin-7-yl)oxy)methyl)-2-((2-(trifluoromethyl)pyridin-4-yl)oxy)benzonitrile]"
≤ 10 nM,≤ 1000 nM,"CN1CCn2c1cc(OCc1ccc(Oc3ccc(Cl)c(F)c3)cc1)nc2=O [Example E25, 7-((4-(4-chloro-3-fluorophenoxy)benzyl)oxy)-1-methyl-2,3-dihydroimidazo[1,2-c]pyrimidin-5(1H)-one]"
≤ 10 nM,≤ 1000 nM,"CN1CCn2c1cc(OCc1ccc(Oc3ccc(Cl)c(Cl)c3)c(F)c1)nc2=O [Example E41, 7-((4-(3,4-dichlorophenoxy)-3-fluorobenzyl)oxy)-1-methyl-2,3-dihydroimidazo[1,2-c]pyrimidin-5(1H)-one]"
≤ 10 nM,≤ 100 nM,"CN1CCn2c1cc(OCc1ccc(Oc3cccc(C(F)(F)F)c3)c(C#N)c1)nc2=O [Example E1, 5-(((1-methyl-5-oxo-1,2,3,5-tetrahydroimidazo[1,2-c]pyrimidin-7-yl)oxy)methyl)-2-(3-(trifluoromethyl)phenoxy)benzonitrile]"
≤ 10 nM,≤ 1000 nM,"CN1CCn2c1cc(OCc1ccc(Oc3ccc(F)c(C(F)(F)F)c3)cc1)nc2=O [Example E29, 7-((4-(4-fluoro-3-(trifluoromethyl)phenoxy)benzyl)oxy)-1-methyl-2,3-dihydroimid-azo[1,2-c]pyrimidin-5(1H)-one]"
≤ 1 nM,≤ 1000 nM,"O=c1nc(OCc2ccc(Oc3cc(F)c(F)c(F)c3)c(F)c2)cc2n1CCN2 [Example E77, 7-((3-fluoro-4-(3,4,5-trifluorophenoxy)benzyl)oxy)-2,3-dihydroimidazo[1,2-c]pyrimidin-5(1H)-one, trifluoroacetic acid salt]"
≤ 10 nM,≤ 1000 nM,"CN1CCn2c1cc(OCc1ccc(Oc3cccc(C#N)c3)c(C#N)c1)nc2=O [Example E62, 2-(3-cyanophenoxy)-5-(((l-methyl-5-oxo-1,2,3,5-tetrahydroimidazo[1,2-c]pyrimidin-7-yl)oxy)methyl)benzonitrile, trifluoroacetic acid salt]"
< 0.501 nM,≤ 100 nM,"CN1CCn2c1cc(OCc1ccc(Oc3ccc(F)c(C(F)(F)F)c3)c(C#N)c1)nc2=O [Example E44, 2-(4-fluoro-3-(trifluoromethyl)phenoxy)-5-(((1-methyl-5-oxo-1,2,3,5-tetrahydroi-midazo[1,2-c]pyrimidin-7-yl)oxy)methyl)benzonitrile, trifluoroacetic acid salt]"
≤ 10 nM,≤ 100 nM,"CN1CCn2c1cc(OCc1ccc(Oc3ccc(F)c(F)c3)c(C#N)c1)nc2=O [Example E34, 2-(3,4-difluorophenoxy)-5-(((1-methyl-5-oxo-1,2,3,5-tetrahydroimidazo[1,2-c]pyrimidin-7-yl)oxy)methyl)benzonitrile]"
